Measurements as given in patent publication US20060045953A1 (priority 2004, published 2006).

Biological target: T1, hT1R1/hT1R3 umami receptor (Homo sapiens, UniProt Q7RTX0+Q7RTX1)
T1 construct: expressed in transfected cells; host or cells: HEK293 derivative stably expressing Gα15, clone I-17, expression induced with mifepristone
T1 sequence (Q7RTX1 21-841): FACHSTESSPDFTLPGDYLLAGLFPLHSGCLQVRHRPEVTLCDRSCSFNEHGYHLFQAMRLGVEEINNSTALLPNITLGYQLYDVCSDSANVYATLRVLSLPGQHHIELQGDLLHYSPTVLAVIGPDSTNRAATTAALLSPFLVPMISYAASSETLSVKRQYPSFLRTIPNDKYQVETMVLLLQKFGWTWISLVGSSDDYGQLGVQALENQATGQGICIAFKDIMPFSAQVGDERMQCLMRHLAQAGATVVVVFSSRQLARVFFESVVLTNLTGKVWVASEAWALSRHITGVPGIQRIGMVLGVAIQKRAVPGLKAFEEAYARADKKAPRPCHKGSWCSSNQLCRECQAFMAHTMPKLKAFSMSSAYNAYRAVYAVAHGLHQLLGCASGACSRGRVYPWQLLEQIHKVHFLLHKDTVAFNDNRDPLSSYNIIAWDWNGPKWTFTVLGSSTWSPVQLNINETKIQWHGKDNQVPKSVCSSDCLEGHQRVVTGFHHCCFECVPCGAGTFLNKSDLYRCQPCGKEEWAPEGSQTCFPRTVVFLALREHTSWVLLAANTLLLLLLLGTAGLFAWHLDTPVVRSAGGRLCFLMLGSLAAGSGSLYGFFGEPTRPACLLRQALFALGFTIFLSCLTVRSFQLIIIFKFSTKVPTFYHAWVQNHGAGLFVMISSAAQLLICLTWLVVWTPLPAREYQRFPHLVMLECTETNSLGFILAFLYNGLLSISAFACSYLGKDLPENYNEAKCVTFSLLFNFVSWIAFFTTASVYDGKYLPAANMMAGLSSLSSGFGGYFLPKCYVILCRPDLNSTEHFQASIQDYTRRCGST
T1 sequence (Q7RTX0 21-852): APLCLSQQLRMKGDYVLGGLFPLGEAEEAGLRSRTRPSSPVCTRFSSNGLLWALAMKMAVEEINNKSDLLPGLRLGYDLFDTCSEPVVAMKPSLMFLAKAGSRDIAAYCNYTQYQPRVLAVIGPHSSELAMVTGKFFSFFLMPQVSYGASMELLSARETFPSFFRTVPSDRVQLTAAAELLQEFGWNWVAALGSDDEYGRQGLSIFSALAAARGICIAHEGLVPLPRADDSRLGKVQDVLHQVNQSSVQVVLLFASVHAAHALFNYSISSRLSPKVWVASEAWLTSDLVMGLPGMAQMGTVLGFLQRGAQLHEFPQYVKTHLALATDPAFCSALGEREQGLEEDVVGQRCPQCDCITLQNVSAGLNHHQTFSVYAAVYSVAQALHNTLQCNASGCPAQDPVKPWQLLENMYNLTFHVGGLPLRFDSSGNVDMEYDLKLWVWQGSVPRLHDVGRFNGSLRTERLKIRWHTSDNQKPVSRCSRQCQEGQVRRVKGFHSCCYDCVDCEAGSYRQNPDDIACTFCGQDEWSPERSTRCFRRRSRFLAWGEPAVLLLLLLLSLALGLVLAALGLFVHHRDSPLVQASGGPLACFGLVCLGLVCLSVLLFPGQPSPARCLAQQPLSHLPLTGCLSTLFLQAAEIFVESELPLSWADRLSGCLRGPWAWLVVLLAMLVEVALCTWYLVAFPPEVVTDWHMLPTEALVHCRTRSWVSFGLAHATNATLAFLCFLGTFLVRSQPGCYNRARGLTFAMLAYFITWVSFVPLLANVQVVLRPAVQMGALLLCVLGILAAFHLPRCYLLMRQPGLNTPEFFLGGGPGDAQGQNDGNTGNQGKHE
Test: In vitro hT1R1/hT1R3 umami taste receptor activation assay (FLIPR, dose response)
Type: cell-based
Settings: Table A, Umami Amides; read-out: Umami EC50

| EC50 [nM] | Compound |
| --- | --- |
| 160 | CCCC(CCC)NC(=O)c1cc2cccc(OC)c2o1 [Example A130, N-(heptan-4-yl)-7-methoxybenzofuran-2-carboxamide] |

Same assay, conditions: Table B, Umami Oxalamides; read-out: Umami EC50

| EC50 [nM] | Compound |
| --- | --- |
| 180 | COc1ccc(CNC(=O)C(=O)NCCc2ccco2)c(OC)c1 [Example B1, N1-(2,4-dimethoxybenzyi)-N2-(2-(furan-2-yl)ethyl)oxalamide] |
| 190 | CCOc1ccc(CNC(=O)C(=O)NCCc2ccc(C)cn2)c(OC)c1 [Example B2, N1-(4-ethoxy-2-methoxybenzyl)-N2-(2-(5-methylpyndm-2-yl)ethyl)oxalamide] |
| 810 | Cc1c(CNC(=O)C(=O)NCCc2ccccn2)sc2ccccc12 [Example B3] |
| 1220 | CC(C)Oc1ccccc1CNC(=O)C(=O)NCCc1ccccn1 [Example B4, N1-(2-isopropoxybenzyl)-N2-(2-(pyridin-2-yl)ethyl)oxalamide] |

Same assay, conditions: Table C, Umami Ureas; read-out: Umami EC50

| EC50 [nM] | Compound |
| --- | --- |
| 370 | CCCC(CCC)NC(=O)Nc1ccccc1Cl [Example C1, 1-(2-chlorophenyl)-3-(heptan-4-yl)urea] |
| 490 | CCC(NC(=O)Nc1ccc(Cl)cc1Cl)c1ccccc1 (centres unmarked) [Example C2, 1-(2,4-dichlorophenyl)-3-(1-phenylpropyl)urea] |
| 520 | CC1CCCCC1NC(=O)Nc1ccccc1Cl (centres unmarked) [Example C3, 1-(2-chlorophenyl)-3-(2-methylcyclohexyl)urea] |
| 790 | CCCC(CCC)NC(=O)Nc1ccccc1F [Example C4, 1-(2-fluorophenyl)-3-(heptan-4-yl)urea] |
| 840 | CC(NC(=O)Nc1ccccc1Cl)C1CCCCC1 (centres unmarked) [Example C5, 1-(2-chlorophenyl)-3-(1-cyclohexylethyl)urea] |
| 980 | CC(C)c1ccc(NC(=O)NCCc2ccccn2)cc1 [Example C6, 1-(4-isopropylphenyl)-3-(2-(pyridin-2-yl)ethyl)urea] |
| 990 | O=C(Nc1ccccc1Cl)NC1CCCc2ccccc21 (centres unmarked) [Example C7, 1-(2-chlorophenyl)-3-(1,2,3,4-tetrahydronaphthalen-1-yl)urea] |
| 1410 | COc1ccc(NC(=O)NC2CCCCC2C)c(OC)c1 (centres unmarked) [Example C8, 1-(2,4-dimethoxyphenyl)-3-(2-methylcyclohexyl)urea] |
| 1420 | CCCC(CCC)NC(=O)Nc1ccccc1CC [Example C9, 1-(2-ethylphenyl)-3-(heptan-4-yl)urea] |
| 1510 | CCOc1ccc(NC(=O)NC2CCCCC2C)cc1 (centres unmarked) [Example C10, 1-(4-ethoxyphenyl)-3-(2-methylcyclohexyl)urea] |
| 1650 | O=C(Nc1ccccc1F)NC1CCCc2ccccc21 (centres unmarked) [Example C11, 1-(2-fluorophenyl)-3-(1,2,3,4-tetrahydronaphthalen-1-yl)urea] |
| 1670 | COc1ccccc1NC(=O)NC1CCCCC1C (centres unmarked) [Example C12, 1-(2-methoxyphenyl)-3-(2-methylcyclohexyl)urea] |
| 1720 | CCC(CC)NC(=O)Nc1ccc(OC)cc1OC [Example C13, 1-(2,4-dimethoxyphenyl)-3-(pentan-3-yl)urea] |
| 140 | CSc1ccccc1NC(=O)NC(C(C)C)C(C)C [Example C14, 1-(2,4-dimethylpentan-3-yl)-3-(2-(methylthio)phenyl)urea] |
| 160 | CCCC(CCC)NC(=O)Nc1ccc(C)cc1OC [Example C15, 1-(heptan-4-yl)-3-(2-methoxy-4-methylphenyl)urea] |
| 210 | COc1cc(C)ccc1NC(=O)NC(C(C)C)C(C)C [Example C16, 1-(2,4-dimethylpentan-3-yl)-3-(2-methoxy-4-methylphenyl)urea] |
| 240 | COc1ccccc1NC(=O)NC(C(C)C)C(C)C [Example C17, 1-(2,4-dimethylpentan-3-yl)-3-(2-methoxyphenyl)urea] |
| 260 | CCCC(CCC)NC(=O)Nc1ccccc1SC [Example C18, 1-(heptan-4-yl)-3-(2-(methylthio)phenyl)urea] |
| 320 | CC(C)C(NC(=O)Nc1ccc2c(c1)OCO2)C(C)C [Example C19, 1-(benzo[d][1,3]dioxol-5-yl)-3-(2,4-dimethylpentan-3-yl)urea] |
| 90 | CCCC(CCC)NC(=O)Nc1ccc(C)cc1Cl [Example C20, 1-(2-chloro-4-methylphenyl)-3-(heptan-4-yl)urea] |
| 110 | CCCC(CCC)NC(=O)Nc1ccc(OC)cc1Cl [Example C21, 1-(2-chloro-4-methoxyphenyl)-3-(heptan-4-yl)urea] |
| 180 | CCCC(CCC)NC(=O)Nc1ccc(Cl)cc1Cl [Example C22, 1-(2,4-dichlorophenyl)-3-(heptan-4-yl)urea] |
| 380 | Cc1ccc(NC(=O)N[C@@H](C)C(C)C)c(Cl)c1 [Example C23, (S)-1-(2-chloro-4-methylphenyl)-3-(3-methylbutan-2-yl)urea] |
| 480 | CCC(NC(=O)Nc1ccc(C)cc1Cl)c1ccccc1 (centres unmarked) [Example C24, 1-(2-chloro-4-methylphenyl)-3-(1-phenylpropyl)urea] |
| 480 | CCC(CC(C)C)NC(=O)Nc1ccc2c(c1)OCO2 (centres unmarked) [Example C25, 1-(benzo[d][1,3]dioxol-5-yl)-3-(5-methylhexan-3-yl)urea] |
| 490 | CCCC(CCC)NC(=O)Nc1ccccc1OC [Example C26, 1-(heptan-4-yl)-3-(2-methoxyphenyl)urea] |
| 540 | CCCC(CCC)NC(=O)Nc1ccc2c(c1)OCO2 [Example C27, 1-(benzo[d][1,3]dioxol-5-yl)-3-(heptan-4-yl)urea] |
| 570 | CCCC(NC(=O)Nc1ccc2c(c1)OCO2)C(C)C (centres unmarked) [Example C28, 1-(benzo[d][1,3]dioxol-5-yl)-3-(2-methylhexan-3-yl)urea] |
| 790 | CCCC(CCC)NC(=O)Nc1ccc(C)cc1C [Example C29, 1-(2,4-dimethylphenyl)-3-(heptan-4-yl)urea] |
| 790 | C=Cc1ccccc1NC(=O)NC(CCC)CCC [Example C30, 1-(heptan-4-yl)-3-(2-vinylphenyl)urea] |

Same assay, conditions: Table D, Umami Acrylamides; read-out: Umami EC50

| EC50 [nM] | Compound |
| --- | --- |
| 290 | COc1ccc(/C=C/C(=O)NC(C(C)C)C(C)C)cc1 [Example D1, (E)-N-(2,4-dimethylpentan-3-yl)-3-(4-methoxyphenyl)acrylamide] |
| 320 | COC(=O)[C@@H](CC(C)C)NC(=O)/C=C/c1ccc(OC)cc1 [Example D2, (R,E)-methyl 2-(3-(4-methoxyphenyl)acrylamido)-4-methylpentanoate] |
| 630 | CCCCC(NC(=O)/C=C/c1ccc(OC)cc1)C(=O)OC (centres unmarked) [Example D3, (E)-methyl 2-(3-(4-methoxyphenyl)acrylamido)hexanoate] |
| 690 | CC(CCc1ccccc1)NC(=O)/C=C/c1cccs1 (centres unmarked) [Example D4, N-(1-Methyl-3-phenyl-propyl)-3-thiophen-2-yl-acrylamide] |
| 720 | CCCC(CCC)NC(=O)/C=C/c1ccc(OC)cc1 [Example D5, (E)-N-(heptan-4-yl)-3-(4-methoxyphenyl)acrylamide] |
| 750 | CCCC(CCC)NC(=O)/C=C/c1cccs1 [Example D6, N-(1-Propyl-butyl)-3-thiophen-2-yl-acrylamide] |
| 820 | CCC(CC)NC(=O)/C=C/c1ccc(OC)cc1 [Example D7, (E)-3-(4-methoxyphenyl)-N-(pentan-3-yl)acrylamide] |
| 940 | CCOc1ccc(/C=C/C(=O)N[C@@H](COC)CC(C)C)cc1 [Example D8, (R,E)-3-(4-ethoxyphenyl)-N-(1-methoxy-4-methylpentan-2-yl)acrylamide] |
| 980 | CCC/C=C\C(=O)NC(CCC)CCC [Example D9, (Z)-N-(heptan-4-yl)hex-2-enamide] |
